# Laboratory results from US11964971B2, “Methods and compositions for modulating splicing” (Skyhawk Therapeutics, Inc., priority 2019, dated 2024).
# Legend:
# SMN protein = SMN protein assay (MSD) in SMA patient fibroblasts (GM03813); type: cell-based, human
# Description: Compounds are tested on spinal muscular atrophy (SMA) patient fibroblasts (GM03813, Coriell) at doses ranging from 2.5 μM to 0.6 nM. 7000 cells/well are seeded in 96-well plates. Compounds are incubated for 48 hours and the cells were lysed with 100 μL of lysis buffer. 20 μL of lysate is used for SMN protein measurement by Mesoscale Discovery (MSD) assay developed by PharmOptima (Michigan). A standard curve prepared with SMN protein ranging from […] is used in each MSD plate to calculate the absolute SMN protein amount in each sample.
# [1] = test system: MDR1-MDCK cell monolayers; details: dog, MDCK-MDR1, 120 min, 5 μM, pH 7.4
# MDR1 = experiment: in vitro; details: dog; for Papp A→B at 120 min, 5 μM: MDCK-MDR1, pH 7.4, MDCK-MDR1: Papp A-B (10^−6, cm/s); for Papp B→A at 120 min, 5 μM: MDCK-MDR1, pH 7.4, MDCK-MDR1: Papp B-A (10^−6, cm/s)
# MDR1 (P-gp) = experiment: MDCK-MDR1 permeability assay, blood-brain-barrier penetration potential; details: dog, MDCK-MDR1, pH 7.4, MDCK-MDR1 Efflux Ratio
smiles,measurement,setting,value
"CN(c1cnc(-c2ccc(-c3cn[nH]c3)cc2O)cn1)[C@@H]1CC2CC[C@H](N2)[C@H]1F (single isomer, unassigned) [Compound 27E1]",EC50,SMN protein,501 to 10000 nM
same,MDCK-MDR1: % Recov A-B (%),[1],77%
same,MDCK-MDR1: % Recov B-A (%),[1],79%
same,"Papp A→B at 120 min, 5 μM",MDR1,3.87 ×10⁻⁶ cm/s
same,"Papp B→A at 120 min, 5 μM",MDR1,28.7 ×10⁻⁶ cm/s
same,"efflux ratio at 120 min, 5 μM",MDR1 (P-gp),7
"CN(c1cnc(-c2ccc(-c3cnn(C)c3)cc2O)cn1)[C@@H]1CC2COC[C@H](N2)[C@@H]1F (single isomer, unassigned) [Compound 73E1]",EC50,SMN protein,101 to 500 nM
same,MDCK-MDR1: % Recov A-B (%),[1],50%
same,MDCK-MDR1: % Recov B-A (%),[1],71%
same,"Papp A→B at 120 min, 5 μM",MDR1,11.5 ×10⁻⁶ cm/s
same,"Papp B→A at 120 min, 5 μM",MDR1,38.1 ×10⁻⁶ cm/s
same,"efflux ratio at 120 min, 5 μM",MDR1 (P-gp),3
"Cc1cc(-c2ccc(-c3cnc(N(C)[C@H]4C[C@@H]5CCC(N5)[C@H]4F)cn3)c(O)c2)cc(=O)[nH]1 (single isomer, unassigned) [Compound 77E2]",EC50,SMN protein,501 to 10000 nM
same,MDCK-MDR1: % Recov A-B (%),[1],44%
same,MDCK-MDR1: % Recov B-A (%),[1],50%
same,"Papp A→B at 120 min, 5 μM",MDR1,0.32 ×10⁻⁶ cm/s
same,"Papp B→A at 120 min, 5 μM",MDR1,14.9 ×10⁻⁶ cm/s
same,"efflux ratio at 120 min, 5 μM",MDR1 (P-gp),47
"C[C@]12CC[C@](C)(N1)[C@H](F)[C@H](Oc1cnc(-c3ccc(-c4cn[nH]c4)cc3O)cn1)C2 [Compound 2E2, 2-(5-(((1S,2S,3R,5R)-2-fluoro-1,5-dimethyl-8-azabicyclo[3.2.1]octan-3-yl)oxy)pyrazin-2-yl)-5-(1H-pyrazol-4-yl)phenol]",EC50,SMN protein,501 to 10000 nM
same,MDCK-MDR1: % Recov A-B (%),[1],71%
same,MDCK-MDR1: % Recov B-A (%),[1],79%
same,"Papp A→B at 120 min, 5 μM",MDR1,9.6 ×10⁻⁶ cm/s
same,"Papp B→A at 120 min, 5 μM",MDR1,34.7 ×10⁻⁶ cm/s
same,"efflux ratio at 120 min, 5 μM",MDR1 (P-gp),4
"CN(c1cnc(-c2ccc(-c3cn[nH]c3)cc2O)cn1)[C@H]1CC2CC(F)(F)[C@H](C1)N2 (single isomer, unassigned) [Compound 9E2]",EC50,SMN protein,16 to 50 nM
same,MDCK-MDR1: % Recov A-B (%),[1],71%
same,MDCK-MDR1: % Recov B-A (%),[1],90%
same,"Papp A→B at 120 min, 5 μM",MDR1,19.9 ×10⁻⁶ cm/s
same,"Papp B→A at 120 min, 5 μM",MDR1,55.4 ×10⁻⁶ cm/s
same,"efflux ratio at 120 min, 5 μM",MDR1 (P-gp),3
"COc1cc(-c2ccc(-c3cnc(N(C4CC4)[C@H]4C[C@@H]5CCC(N5)[C@H]4F)cn3)c(O)c2)cc(F)n1 (single isomer, unassigned) [Compound 52E2]",EC50,SMN protein,501 to 10000 nM
same,MDCK-MDR1: % Recov A-B (%),[1],12%
same,MDCK-MDR1: % Recov B-A (%),[1],49%
same,"Papp A→B at 120 min, 5 μM",MDR1,1.63 ×10⁻⁶ cm/s
same,"Papp B→A at 120 min, 5 μM",MDR1,3.32 ×10⁻⁶ cm/s
same,"efflux ratio at 120 min, 5 μM",MDR1 (P-gp),2
"CN(c1cnc(-c2ccc(-c3ccn(CF)c(=O)c3)cc2O)cn1)[C@H]1C[C@@H]2CCC(N2)[C@H]1F (single isomer, unassigned) [Compound 46E2]",EC50,SMN protein,101 to 500 nM
same,MDCK-MDR1: % Recov A-B (%),[1],77%
same,MDCK-MDR1: % Recov B-A (%),[1],80%
same,"Papp A→B at 120 min, 5 μM",MDR1,2 ×10⁻⁶ cm/s
same,"Papp B→A at 120 min, 5 μM",MDR1,43 ×10⁻⁶ cm/s
same,"efflux ratio at 120 min, 5 μM",MDR1 (P-gp),22
"CN(c1cnc(-c2cc(F)c(C3=CC(F)NC(F)=C3)cc2O)cn1)[C@@H]1C[C@@]2(C)CC[C@](C)(N2)[C@@H]1F (single isomer, unassigned) [Compound 63E1]",EC50,SMN protein,501 to 10000 nM
same,MDCK-MDR1: % Recov A-B (%),[1],18%
same,MDCK-MDR1: % Recov B-A (%),[1],35%
same,"Papp A→B at 120 min, 5 μM",MDR1,0.7 ×10⁻⁶ cm/s
same,"Papp B→A at 120 min, 5 μM",MDR1,0.45 ×10⁻⁶ cm/s
same,"efflux ratio at 120 min, 5 μM",MDR1 (P-gp),1
"COc1cc(-c2ccc(-c3cnc(N(C)[C@@H]4CC5CC[C@H](N5)[C@@H]4F)cn3)c(O)c2)ccn1 (single isomer, unassigned) [Compound 43E1]",EC50,SMN protein,101 to 500 nM
same,MDCK-MDR1: % Recov A-B (%),[1],18%
same,MDCK-MDR1: % Recov B-A (%),[1],50%
same,"Papp A→B at 120 min, 5 μM",MDR1,1.06 ×10⁻⁶ cm/s
same,"Papp B→A at 120 min, 5 μM",MDR1,1.31 ×10⁻⁶ cm/s
same,"efflux ratio at 120 min, 5 μM",MDR1 (P-gp),1
"COc1cc(-c2ccc(-c3cnc(N(C)[C@H]4C[C@@H]5CCC(N5)[C@H]4F)cn3)c(O)c2)ncn1 (single isomer, unassigned) [Compound 48E2]",EC50,SMN protein,51 to 100 nM
same,MDCK-MDR1: % Recov A-B (%),[1],28%
same,MDCK-MDR1: % Recov B-A (%),[1],57%
same,"Papp A→B at 120 min, 5 μM",MDR1,5.38 ×10⁻⁶ cm/s
same,"Papp B→A at 120 min, 5 μM",MDR1,13.8 ×10⁻⁶ cm/s
same,"efflux ratio at 120 min, 5 μM",MDR1 (P-gp),3
